According to ChEMBL document CHEMBL5537201, “Discovery of Unique Bis-Substituted Aromatic Amide Derivatives as Novel Highly Potent Antibiotics for Combating Methicillin-Resistant Staphylococcus aureus (MRSA)” (J Med Chem, 2024):
Converted amounts (≈) assume the structure as drawn. The source made the active and inactive calls. The calls are words filed in the database; no cut-off is given here.

Tests used:
Staphylococcus aureus [1] = test: Antimicrobial activity against Staphylococcus aureus ATCC6538 assessed as reduction in bacterial growth incubated for 24 hrs by two-fold broth dilution method; assay type: functional
Staphylococcus aureus [2] = test: Antimicrobial activity against Staphylococcus aureus N315 assessed as reduction in bacterial growth incubated for 24 hrs by two-fold broth dilution method; assay type: functional
Staphylococcus aureus [3] = test: Antimicrobial activity against methicillin resistant Staphylococcus aureus clinical isolate MRS1 assessed as reduction in bacterial growth incubated for 24 hrs by two-fold broth dilution method; assay type: functional
Staphylococcus aureus [4] = test: Antimicrobial activity against methicillin resistant Staphylococcus aureus clinical isolate MRS97 assessed as reduction in bacterial growth incubated for 24 hrs by two-fold broth dilution method; assay type: functional
A549 = test: Cytotoxicity against human A549 cells assessed as reduction in cell viability measured after 24 hrs by CCK-8 method; assay type: functional, cell-based; conditions: A549, 24 h
Staphylococcus aureus [5] = test: Antimicrobial activity against methicillin resistant Staphylococcus aureus clinical isolate MRS121 assessed as reduction in bacterial growth incubated for 24 hrs by two-fold broth dilution method; assay type: functional
Staphylococcus aureus [6] = test: Bactericidal activity against Staphylococcus aureus ATCC6538 assessed as reduction in survival rate at 5 to 10 times MIC measured after 30 to 120 mins by colony counting method relative to control; assay type: functional; conditions: time 30-120 min
Staphylococcus aureus [7] = test: Antimicrobial activity against methicillin resistant Staphylococcus aureus clinical isolate MRS207 assessed as reduction in bacterial growth incubated for 24 hrs by two-fold broth dilution method; assay type: functional
[8] = Cytotoxicity against HEK293 cells assessed as reduction in cell viability measured after 24 hrs by CCK-8 method; assay type: toxicity, cell-based; conditions: human
Staphylococcus aureus [9] = test: Antimicrobial activity against methicillin resistant Staphylococcus aureus clinical isolate MRS108 assessed as reduction in bacterial growth incubated for 24 hrs by two-fold broth dilution method; assay type: functional
Staphylococcus aureus [10] = test: Antimicrobial activity against methicillin resistant Staphylococcus aureus clinical isolate MRS23 assessed as reduction in bacterial growth incubated for 24 hrs by two-fold broth dilution method; assay type: functional
[11] = Cytotoxicity against African green monkey Vero E6 cells assessed as reduction in cell viability measured after 24 hrs by CCK-8 method; assay type: toxicity, cell-based, Chlorocebus sabaeus, Vero C1008
HeLa = test: Cytotoxicity against human HeLa cells assessed as reduction in cell viability measured after 24 hrs by CCK-8 method; assay type: functional, cell-based
Staphylococcus aureus [12] = test: Antimicrobial activity against methicillin resistant Staphylococcus aureus clinical isolate MRS200 assessed as reduction in bacterial growth incubated for 24 hrs by two-fold broth dilution method; assay type: functional
Staphylococcus aureus [13] = test: Antimicrobial activity against methicillin resistant Staphylococcus aureus clinical isolate MRS152 assessed as reduction in bacterial growth incubated for 24 hrs by two-fold broth dilution method; assay type: functional
Staphylococcus aureus [14] = test: Antimicrobial activity against methicillin resistant Staphylococcus aureus clinical isolate MRS84 assessed as reduction in bacterial growth incubated for 24 hrs by two-fold broth dilution method; assay type: functional
[15] = Selectivity index, ratio of HC50 for rabbit Red blood cell to MIC for Staphylococcus aureus ATCC6538; assay type: toxicity; conditions: red blood cells (erythrocytes), read-out: Selectivity Index
Staphylococcus hominis = test: Antimicrobial activity against methicillin-resistant Staphylococcus hominis assessed as reduction in bacterial growth incubated for 24 hrs by two-fold broth dilution method; assay type: functional
Staphylococcus aureus [16] = test: Antimicrobial activity against methicillin resistant Staphylococcus aureus clinical isolate MRS70 assessed as reduction in bacterial growth incubated for 24 hrs by two-fold broth dilution method; assay type: functional
Staphylococcus aureus [17] = test: Induction of drug resistance in Staphylococcus aureus ATCC6538 assessed as change in MIC measured after 10 passages; assay type: functional
[18] = Hemolytic activity in rabbit Red blood cell assessed as hemolysis incubated for 1 hr by two-fold microdilution method; assay type: toxicity, cell-based, Oryctolagus cuniculus, Erythrocyte; conditions: red blood cells (erythrocytes)
[19] = Selectivity index, ratio of IC50 for African green monkey Vero E6 cells to MIC for Staphylococcus aureus ATCC6538; assay type: toxicity; conditions: read-out: Selectivity Index
Staphylococcus aureus [20] = test: Antimicrobial activity against methicillin resistant Staphylococcus aureus clinical isolate MRS273 assessed as reduction in bacterial growth incubated for 24 hrs by two-fold broth dilution method; assay type: functional
Streptomyces albus = test: Antimicrobial activity against Streptomyces albus SHBC D11158 assessed as reduction in bacterial growth incubated for 24 hrs by two-fold broth dilution method; assay type: functional
[21] = Cytotoxicity against human HaCaT cells assessed as reduction in cell viability measured after 24 hrs by CCK-8 method; assay type: toxicity, cell-based
Staphylococcus aureus [22] = test: Antimicrobial activity against methicillin resistant Staphylococcus aureus clinical isolate MRS153 assessed as reduction in bacterial growth incubated for 24 hrs by two-fold broth dilution method; assay type: functional

C=CCCC(=O)N(Cc1cc2ccccc2s1)c1ccc2ccccc2c1O
MIC (Staphylococcus aureus [1]): > 250 µg/mL
MIC (Staphylococcus aureus [2]): > 250 µg/mL

COc1cc(-c2ccccc2)ccc1N(Cc1cc2ccccc2s1)C(=O)CCC(F)(F)F
MIC (Staphylococcus aureus [1]): > 16 µg/mL
MIC (Staphylococcus aureus [2]): > 16 µg/mL

O=C(CCC(F)(F)F)N(Cc1cc2ccccc2s1)c1cc(-c2ccccc2)ccc1O
MIC (Staphylococcus aureus [3]): 3 µg/mL (≈ 6.59 µM)
MIC (Staphylococcus aureus [4]): 2 µg/mL (≈ 4.39 µM)
IC50 (A549): 10.7 µg/mL (≈ 23.5 µM)
MIC (Staphylococcus aureus [5]): 3 µg/mL (≈ 6.59 µM)
MIC (Staphylococcus aureus [1]): 1 µg/mL (≈ 2.2 µM)
Survival (Staphylococcus aureus [6]): <1%
MIC (Staphylococcus aureus [7]): 2 µg/mL (≈ 4.39 µM)
IC50 at 24 h [8]: 7.8 µg/mL (≈ 17.1 µM)
MIC (Staphylococcus aureus [9]): 2 µg/mL (≈ 4.39 µM)
MIC (Staphylococcus aureus [10]): 3 µg/mL (≈ 6.59 µM)
IC50 at 24 h [11]: 22.9 µg/mL (≈ 50.3 µM)
IC50 (HeLa): > 25 µg/mL
MIC (Staphylococcus aureus [12]): 3 µg/mL (≈ 6.59 µM)
MIC (Staphylococcus aureus [13]): 2 µg/mL (≈ 4.39 µM)
MIC (Staphylococcus aureus [14]): 2 µg/mL (≈ 4.39 µM)
selectivity ratio [15]: > 1000
MIC (Staphylococcus hominis): 6 µg/mL (≈ 13.2 µM)
MIC (Staphylococcus aureus [16]): 3 µg/mL (≈ 6.59 µM)
Activity (Staphylococcus aureus [17]): inactive
MIC (Staphylococcus aureus [2]): 2 µg/mL (≈ 4.39 µM)
HC50 at 1 h [18]: 1770 µg/mL
selectivity ratio [19]: 22
MIC (Staphylococcus aureus [20]): 3 µg/mL (≈ 6.59 µM)
MIC (Streptomyces albus): 4 µg/mL (≈ 8.78 µM)
IC50 at 24 h [21]: > 25 µg/mL
MIC (Staphylococcus aureus [22]): 3 µg/mL (≈ 6.59 µM)

CCCCC(=O)N(Cc1ccc2c(c1)OCCO2)c1ccc2ccccc2c1O
MIC (Staphylococcus aureus [1]): 31.2 µg/mL (≈ 79.8 µM)
MIC (Staphylococcus aureus [2]): 62.5 µg/mL (≈ 160 µM)

O=C(CCC(F)(F)F)N(Cc1cc2ccccc2s1)c1ccc2ccccc2c1O
MIC (Staphylococcus aureus [1]): 2 µg/mL (≈ 4.66 µM)
MIC (Staphylococcus aureus [2]): 2 µg/mL (≈ 4.66 µM)

O=C(CCC(F)(F)F)N(Cc1cc2ccccc2s1)c1cc(-c2ccc(Br)cc2)ccc1O
MIC (Staphylococcus aureus [1]): 2 µg/mL (≈ 3.74 µM)
MIC (Staphylococcus aureus [2]): 3 µg/mL (≈ 5.61 µM)

O=C(CCC(F)(F)F)N(Cc1cc2ccccc2s1)c1cc(-c2ccc(C(F)(F)F)cc2)ccc1O
MIC (Staphylococcus aureus [3]): 16 µg/mL (≈ 30.6 µM)
MIC (Staphylococcus aureus [4]): 3 µg/mL (≈ 5.73 µM)
IC50 (A549): 3.61 µg/mL (≈ 6.9 µM)
MIC (Staphylococcus aureus [5]): 6 µg/mL (≈ 11.5 µM)
MIC (Staphylococcus aureus [1]): 0.5 µg/mL (≈ 0.955 µM)
MIC (Staphylococcus aureus [7]): 16 µg/mL (≈ 30.6 µM)
IC50 at 24 h [8]: 2.79 µg/mL (≈ 5.33 µM)
MIC (Staphylococcus aureus [9]): 16 µg/mL (≈ 30.6 µM)
MIC (Staphylococcus aureus [10]): 16 µg/mL (≈ 30.6 µM)
IC50 at 24 h [11]: 5.55 µg/mL (≈ 10.6 µM)
IC50 (HeLa): 5 µg/mL (≈ 9.55 µM)
MIC (Staphylococcus aureus [12]): 16 µg/mL (≈ 30.6 µM)
MIC (Staphylococcus aureus [13]): 6 µg/mL (≈ 11.5 µM)
MIC (Staphylococcus aureus [14]): 6 µg/mL (≈ 11.5 µM)
selectivity ratio [15]: > 1000
MIC (Staphylococcus hominis): 8 µg/mL (≈ 15.3 µM)
MIC (Staphylococcus aureus [16]): 6 µg/mL (≈ 11.5 µM)
Activity (Staphylococcus aureus [17]): inactive
MIC (Staphylococcus aureus [2]): 2 µg/mL (≈ 3.82 µM)
HC50 at 1 h [18]: 5570 µg/mL
selectivity ratio [19]: 11
MIC (Staphylococcus aureus [20]): 6 µg/mL (≈ 11.5 µM)
MIC (Streptomyces albus): 8 µg/mL (≈ 15.3 µM)
IC50 at 24 h [21]: 3.92 µg/mL (≈ 7.49 µM)
MIC (Staphylococcus aureus [22]): 6 µg/mL (≈ 11.5 µM)

O=C(CCC(F)(F)F)N(Cc1cc2ccccc2s1)c1cc(-c2ccccc2C(F)(F)F)ccc1O
MIC (Staphylococcus aureus [1]): > 16 µg/mL
MIC (Staphylococcus aureus [2]): > 16 µg/mL

O=C(CCC(F)(F)F)N(Cc1cc2ccccc2s1)c1cc(-c2ccc(F)cc2)ccc1O
MIC (Staphylococcus aureus [3]): 6 µg/mL (≈ 12.7 µM)
MIC (Staphylococcus aureus [4]): 2 µg/mL (≈ 4.22 µM)
IC50 (A549): 10 µg/mL (≈ 21.1 µM)
MIC (Staphylococcus aureus [5]): 2 µg/mL (≈ 4.22 µM)
MIC (Staphylococcus aureus [1]): 1 µg/mL (≈ 2.11 µM)
Survival (Staphylococcus aureus [6]): <1%
MIC (Staphylococcus aureus [7]): 3 µg/mL (≈ 6.34 µM)
IC50 at 24 h [8]: 20.7 µg/mL (≈ 43.8 µM)
MIC (Staphylococcus aureus [9]): 2 µg/mL (≈ 4.22 µM)
MIC (Staphylococcus aureus [10]): 2 µg/mL (≈ 4.22 µM)
IC50 at 24 h [11]: 17.3 µg/mL (≈ 36.6 µM)
IC50 (HeLa): 16.7 µg/mL (≈ 35.3 µM)
MIC (Staphylococcus aureus [12]): 6 µg/mL (≈ 12.7 µM)
MIC (Staphylococcus aureus [13]): 6 µg/mL (≈ 12.7 µM)
MIC (Staphylococcus aureus [14]): 2 µg/mL (≈ 4.22 µM)
selectivity ratio [15]: > 1000
MIC (Staphylococcus hominis): 8 µg/mL (≈ 16.9 µM)
MIC (Staphylococcus aureus [16]): 6 µg/mL (≈ 12.7 µM)
Activity (Staphylococcus aureus [17]): inactive
MIC (Staphylococcus aureus [2]): 1 µg/mL (≈ 2.11 µM)
HC50 at 1 h [18]: 2150 µg/mL
selectivity ratio [19]: 18
MIC (Staphylococcus aureus [20]): 2 µg/mL (≈ 4.22 µM)
MIC (Streptomyces albus): 16 µg/mL (≈ 33.8 µM)
IC50 at 24 h [21]: 14.7 µg/mL (≈ 31 µM)
MIC (Staphylococcus aureus [22]): 2 µg/mL (≈ 4.22 µM)

CCCCC(=O)N(Cc1cc2ccccc2o1)c1ccc2ccccc2c1O
MIC (Staphylococcus aureus [1]): 31.2 µg/mL (≈ 83.7 µM)
MIC (Staphylococcus aureus [2]): 62.5 µg/mL (≈ 167 µM)

CCCCC(=O)N(Cc1ccc2c(c1)CCO2)c1ccc2ccccc2c1O
MIC (Staphylococcus aureus [1]): 62.5 µg/mL (≈ 166 µM)
MIC (Staphylococcus aureus [2]): 62.5 µg/mL (≈ 166 µM)

O=C(CCC(F)(F)F)N(Cc1cc2ccccc2s1)c1cccc(-c2ccccc2)c1O
MIC (Staphylococcus aureus [1]): > 16 µg/mL
MIC (Staphylococcus aureus [2]): > 16 µg/mL

CCCCC(=O)N(Cc1cc2ccccc2s1)c1ccc2ccccc2c1O
MIC (Staphylococcus aureus [1]): 15.6 µg/mL (≈ 40.1 µM)
MIC (Staphylococcus aureus [2]): 15.6 µg/mL (≈ 40.1 µM)

COc1ccc(-c2ccc(O)c(N(Cc3cc4ccccc4s3)C(=O)CCC(F)(F)F)c2)cc1
MIC (Staphylococcus aureus [3]): > 16 µg/mL
MIC (Staphylococcus aureus [4]): 16 µg/mL (≈ 33 µM)
MIC (Staphylococcus aureus [5]): 16 µg/mL (≈ 33 µM)
MIC (Staphylococcus aureus [1]): 1 µg/mL (≈ 2.06 µM)
MIC (Staphylococcus aureus [7]): > 16 µg/mL
MIC (Staphylococcus aureus [9]): > 16 µg/mL
MIC (Staphylococcus aureus [10]): > 16 µg/mL
MIC (Staphylococcus aureus [12]): 16 µg/mL (≈ 33 µM)
MIC (Staphylococcus aureus [13]): > 16 µg/mL
MIC (Staphylococcus aureus [14]): > 16 µg/mL
MIC (Staphylococcus hominis): > 32 µg/mL
MIC (Staphylococcus aureus [16]): > 16 µg/mL
MIC (Staphylococcus aureus [2]): 1 µg/mL (≈ 2.06 µM)
MIC (Staphylococcus aureus [20]): 16 µg/mL (≈ 33 µM)
MIC (Streptomyces albus): > 32 µg/mL
MIC (Staphylococcus aureus [22]): 16 µg/mL (≈ 33 µM)

O=C(CCC(F)(F)F)N(Cc1cc2ccccc2s1)c1ccc(-c2ccccc2)c(O)c1
MIC (Staphylococcus aureus [1]): 2 µg/mL (≈ 4.39 µM)
MIC (Staphylococcus aureus [2]): > 16 µg/mL

CCCCCC(=O)N(Cc1cc2ccccc2s1)c1ccc2ccccc2c1O
MIC (Staphylococcus aureus [1]): > 250 µg/mL
MIC (Staphylococcus aureus [2]): > 250 µg/mL
